Values after ≈ are worked out from the molar mass of the structure shown. Active and inactive are the calls of the source. No cut-off for these calls is given here.
Columns and labels:
Candida albicans [1] = test: Effect on sterol composition in Candida albicans SC5314 assessed as 14alpha-demethyllanosterol content at 0.0625 microg/ml measured after 16 hrs by GC-MS analysis (reference value: 1.98 %); format: functional; conditions: dose 0.0625 µg/ml
[2] = MRT (0 to t) in Sprague-Dawley rat at 10 mg/kg, po by LC-MS/MS analysis; format: ADME, organism-based; conditions: in vivo
Candida albicans [3] = test: Selectivity ratio of MFC for fungicidal activity against Candida albicans SC5314 to MIC80 for antifungal activity against Candida albicans SC5314; format: functional
[4] = AUC (0 to t) in Sprague-Dawley rat at 10 mg/kg, po by LC-MS/MS analysis; format: ADME, organism-based; conditions: in vivo
Candida albicans [5] = test: Fungicidal activity fluconazole and iodiconazole resistant Candida albicans clinical isolate 17# assessed as reduction in viable colony count at 0.5 microg/ml measured within 24 hrs by time-kill kinetics assay; format: functional, organism-based; conditions: dose 0.5 µg/ml
Pichia kudriavzevii = test: Antifungal activity against Candida krusei GIM 2.1 assessed as inhibition of fungal growth by CLSI M27-A3 guidelines based method; format: functional
Candida albicans [6] = test: Antifungal activity against fluconazole and iodiconazole resistant Candida albicans clinical isolate 17# assessed as inhibition of fungal growth by CLSI M27-A3 guidelines based method; format: functional
[7] = Half-life in Sprague-Dawley rat at 10 mg/kg, po by LC-MS/MS analysis; format: ADME, organism-based; conditions: in vivo
Candida albicans [8] = test: Antibiofilm activity against fluconazole-resistant Candida albicans CPCC400616 assessed as inhibition of metabolic activity of biofilm measured after 24 hrs by XTT reduction assay; format: functional
Candida tropicalis = test: Antifungal activity against Candida tropicalis GIM 2.183 assessed as inhibition of fungal growth by CLSI M27-A3 guidelines based method; format: functional
[9] = MRT(0 to t) in Sprague-Dawley rat at 3 mg/kg, iv by LC-MS/MS analysis; format: ADME, organism-based; conditions: in vivo
Candida parapsilosis = test: Antifungal activity against Candida parapsilosis GIM 2.190 assessed as inhibition of fungal growth by CLSI M27-A3 guidelines based method; format: functional; conditions: Lodderomyces parapsilosis
Candida albicans [10] = test: Antibiofilm activity against Candida albicans CPCC400616 assessed as inhibition of morphological transformation by measuring disappearance of mycelium at 2 microg/ml incubated for 4 hrs by microscopic photograph analysis; format: functional, organism-based; conditions: dose 2.0 µg/ml
Candida albicans [11] = test: Effect on sterol composition in Candida albicans SC5314 assessed as other sterols content at 0.0625 microg/ml measured after 16 hrs by GC-MS analysis (reference value: 1.06 %); format: functional; conditions: dose 0.0625 µg/ml
Candida albicans [12] = test: Antifungal activity against fluconazole-resistant Candida albicans clinical isolate 901 assessed as inhibition of fungal growth by CLSI M27-A3 guidelines based method; format: functional
[13] = Cmax in Sprague-Dawley rat at 3 mg/kg, iv by LC-MS/MS analysis; format: ADME, organism-based; conditions: in vivo
[14] = Cmax in Sprague-Dawley rat at 10 mg/kg, po by LC-MS/MS analysis; format: ADME, organism-based; conditions: in vivo
Nakaseomyces glabratus = test: Antifungal activity against Candida glabrata assessed as inhibition of fungal growth by CLSI M27-A3 guidelines based method; format: functional
[15] = Cytotoxicity against human NCI-H460 cells assessed as inhibition of cell growth incubated for 72 hrs by MTT assay; format: toxicity, cell-based
Candida albicans [16] = test: Effect on sterol composition in Candida albicans SC5314 assessed as eburicol content at 0.0625 microg/ml measured after 16 hrs by GC-MS analysis relative to control; format: functional; conditions: dose 0.0625 µg/ml
Candida albicans [17] = test: Antifungal activity against fluconazole-resistant Candida albicans clinical isolate 311 assessed as inhibition of fungal growth by CLSI M27-A3 guidelines based method; format: functional
[18] = Cytotoxicity against HUVEC cells assessed as inhibition of cell growth incubated for 72 hrs by MTT assay; format: toxicity, cell-based; conditions: human
Candida albicans [19] = test: Selectivity ratio of MFC for fungicidal activity against fluconazole and iodiconazole resistant Candida albicans clinical isolate 17# to MIC80 for antifungal activity against fluconazole and iodiconazole resistant Candida albicans clinical isolate 17#; format: functional
Candida albicans [20] = test: Fungicidal activity against fluconazole and iodiconazole resistant Candida albicans clinical isolate 17# incubated for 48 hrs by SDA plate based method; format: functional
[21] = Selectivity index, ratio of IC50 for HEK293T cells to MIC80 for Candida albicans SC5314; format: toxicity, cell-based; conditions: human, HEK293T cells versus Candida albicans SC5314; read-out: Selectivity Index
Candida albicans [22] = test: Effect on sterol composition in Candida albicans SC5314 assessed as obtusifoliol content at 0.0625 microg/ml measured after 16 hrs by GC-MS analysis relative to control; format: functional; conditions: dose 0.0625 µg/ml
Candida albicans [23] = test: Antifungal activity against fluconazole-resistant Candida albicans clinical isolate 632 assessed as inhibition of fungal growth by CLSI M27-A3 guidelines based method; format: functional
[24] = Cytotoxicity against HEK293T cells assessed as inhibition of cell growth incubated for 72 hrs by MTT assay; format: toxicity, cell-based, HEK-293T; conditions: human
Candida albicans [25] = test: Antibiofilm activity against fluconazole-resistant Candida albicans CPCC400616 assessed as inhibition of metabolic activity of biofilm measured after 6 hrs by XTT reduction assay; format: functional
Candida albicans [26] = test: Antifungal activity against fluconazole-resistant Candida albicans clinical isolate 904 assessed as inhibition of fungal growth by CLSI M27-A3 guidelines based method; format: functional
[27] = Tmax in Sprague-Dawley rat at 3 mg/kg, iv by LC-MS/MS analysis; format: ADME, organism-based; conditions: in vivo
Candida albicans [28] = test: Antifungal activity against Candida albicans SC5314 assessed as inhibition of fungal growth by CLSI M27-A3 guidelines based method; format: functional
Candida albicans [29] = test: Effect on sterol composition in Candida albicans SC5314 assessed as ergosterol content at 0.0625 microg/ml measured after 16 hrs by GC-MS analysis (reference value: 96.96 %); format: functional; conditions: dose 0.0625 µg/ml
[30] = Oral bioavailability in Sprague-Dawley rat at 10 mg/kg by LC-MS/MS analysis; format: ADME, organism-based; conditions: in vivo
[31] = Apparent volume of distribution in Sprague-Dawley rat at 3 mg/kg, iv by LC-MS/MS analysis; format: ADME, organism-based; conditions: in vivo
Candida albicans [32] = test: Antibiofilm activity against fluconazole-resistant Candida albicans CPCC400616 assessed as inhibition of metabolic activity of biofilm measured after 48 hrs by XTT reduction assay; format: functional
Candida albicans [33] = test: Effect on sterol composition in Candida albicans SC5314 assessed as lanosterol content at 0.0625 microg/ml measured after 16 hrs by GC-MS analysis relative to control; format: functional; conditions: dose 0.0625 µg/ml
Candida albicans [34] = test: Antifungal activity against fluconazole-resistant Candida albicans clinical isolate 103 assessed as inhibition of fungal growth by CLSI M27-A3 guidelines based method; format: functional
Candida albicans [35] = test: Fungicidal activity against Candida albicans SC5314 incubated for 48 hrs by SDA plate based method; format: functional
[36] = Tmax in Sprague-Dawley rat at 10 mg/kg, po by LC-MS/MS analysis; format: ADME, organism-based; conditions: in vivo
Candida albicans [37] = test: Fungicidal activity fluconazole and iodiconazole resistant Candida albicans clinical isolate 17# assessed as reduction in viable colony count measured for 24 hrs by time-kill kinetics assay; format: functional, organism-based
[38] = Cytotoxicity against human OVCAR-3 cells assessed as inhibition of cell growth incubated for 72 hrs by MTT assay; format: toxicity, cell-based
Candida albicans [39] = test: Antifungal activity against fluconazole-resistant Candida albicans CaR assessed as inhibition of fungal growth by CLSI M27-A3 guidelines based method; format: functional
[40] = Half-life in Sprague-Dawley rat at 3 mg/kg, iv by LC-MS/MS analysis; format: ADME, organism-based; conditions: in vivo
Candida albicans [41] = test: Antifungal activity against fluconazole-resistant Candida albicans clinical isolate 100 assessed as inhibition of fungal growth by CLSI M27-A3 guidelines based method; format: functional
[42] = AUC (0 to t) in Sprague-Dawley rat at 3 mg/kg, iv by LC-MS/MS analysis; format: ADME, organism-based; conditions: in vivo
Candida albicans [43] = test: Antifungal activity against Candida albicans GIM 2.194 assessed as inhibition of fungal growth by CLSI M27-A3 guidelines based method; format: functional

Structure (SMILES): CN(Cc1ccc(N2CCN(Cc3ccc(F)cc3Br)CC2)cc1)CC(O)(Cn1cncn1)c1ccc(F)cc1F (configuration not stated)
- Activity (Candida albicans [1]): 2.78%
- MRT last [2]: 1.12 h
- Selectivity ratio (Candida albicans [3]): 5
- AUC(0-t) [4]: 14.4 ng·h/mL
- Activity (Candida albicans [5]): Active
- MIC80 (Pichia kudriavzevii): 0.1 µg/mL (≈ 0.159 µM)
- MIC80 (Candida albicans [6]): 0.063 µg/mL (≈ 0.1 µM)
- half-life [7]: 1.12 h
- MIC50 (Candida albicans [8]): 2 µg/mL (≈ 3.18 µM)
- MIC80 (Candida tropicalis): 0.006 µg/mL (≈ 0.00953 µM)
- MRT last [9]: 0.478 h
- MIC80 (Candida parapsilosis): 0.006 µg/mL (≈ 0.00953 µM)
- Activity (Candida albicans [10]): Active
- Activity (Candida albicans [11]): 4.47%
- MIC80 (Candida albicans [12]): > 64 µg/mL
- Cmax [13]: 535 ng/mL
- Cmax [14]: 10.6 ng/mL
- MIC80 (Nakaseomyces glabratus): 0.1 µg/mL (≈ 0.159 µM)
- IC50 at 72 h [15]: 5.22 µM
- Activity (Candida albicans [16]): 65.56%
- MIC80 (Candida albicans [17]): 8 µg/mL (≈ 12.7 µM)
- IC50 at 72 h [18]: > 10 µM
- Selectivity ratio (Candida albicans [19]): 1
- MFC (Candida albicans [20]): 0.063 µg/mL (≈ 0.1 µM)
- Selectivity ratio [21]: 798
- Activity (Candida albicans [22]): 14.81%
- MIC80 (Candida albicans [23]): 8 µg/mL (≈ 12.7 µM)
- IC50 at 72 h [24]: 4.99 µM
- MIC50 (Candida albicans [25]): 0.5 µg/mL (≈ 0.794 µM)
- MIC80 (Candida albicans [26]): 8 µg/mL (≈ 12.7 µM)
- Tmax [27]: 4.98 min
- MIC80 (Candida albicans [28]): 0.006 µg/mL (≈ 0.00953 µM)
- Activity (Candida albicans [29]): 1.83%
- bioavailability [30]: 1.66%
- Vz [31]: 4.89 L/kg
- MIC50 (Candida albicans [32]): 8 µg/mL (≈ 12.7 µM)
- Activity (Candida albicans [33]): 10.55%
- MIC80 (Candida albicans [34]): 4 µg/mL (≈ 6.35 µM)
- MFC (Candida albicans [35]): 0.031 µg/mL (≈ 0.0492 µM)
- Tmax [36]: 1 h
- Activity (Candida albicans [37]): Dose-dependent-effect; Much More Effective Than Iodiconazole
- IC50 at 72 h [38]: 7.72 µM
- MIC80 (Candida albicans [39]): 0.063 µg/mL (≈ 0.1 µM)
- t1/2 [40]: 0.37 h
- MIC80 (Candida albicans [41]): 2 µg/mL (≈ 3.18 µM)
- AUCt [42]: 324 ng·h/mL
- MIC80 (Candida albicans [43]): 0.013 µg/mL (≈ 0.0207 µM)

Source: ChEMBL document CHEMBL6092162, “Identification of novel and potent triazoles targeting CYP51 for antifungal: Design, synthesis, and biological study” (Eur J Med Chem, 2024)
